From PMC12748989 (Nature Communications, 2025)

Tests used:
PBMC = details: 12.5 µM

| Structure (SMILES) | Average (percentage cell inhibition), Dmastoparan MDA-MB231 12.5uM (MDA-MB-231 cells) | Average (percentage cell inhibition), Mastoparan PBMC (PBMC) |
| --- | --- | --- |
| CC[C@H](C)[C@H](N)C(=O)N[C@@H](CC(N)=O)C(=O)N[C@@H](CC(C)C)C(=O)N[C@@H](CCCCN)C(=O)N[C@@H](C)C(=O)N[C@@H](CC(C)C)C(=O)N[C@@H](C)C(=O)N[C@@H](C)C(=O)N[C@@H](CC(C)C)C(=O)N[C@@H](C)C(=O)N[C@@H](CO)C(=O)N[C@@H](CCCCN)C(=O)N[C@H](C(=O)N[C@@H](CC(C)C)C(N)=O)[C@@H](C)CC [S11] | 28.2862% | 3.714% |
| CC[C@H](C)[C@H](N)C(=O)N[C@@H](CC(N)=O)C(=O)NCC(=O)N[C@@H](CCCCN)C(=O)N[C@@H](C)C(=O)N[C@@H](CC(C)C)C(=O)N[C@@H](C)C(=O)N[C@@H](C)C(=O)N[C@@H](CC(C)C)C(=O)N[C@@H](C)C(=O)N[C@@H](CCCCN)C(=O)N[C@@H](CCCCN)C(=O)N[C@H](C(=O)N[C@@H](CC(C)C)C(N)=O)[C@@H](C)CC [G3] | 40.6724% | 8.745% |
| CC[C@H](C)[C@H](N)C(=O)N[C@@H](CC(N)=O)C(=O)N[C@@H](CC(C)C)C(=O)N[C@@H](CCCCN)C(=O)N[C@@H](C)C(=O)N[C@@H](CCCNC(=N)N)C(=O)N[C@@H](C)C(=O)N[C@@H](C)C(=O)N[C@@H](CC(C)C)C(=O)N[C@@H](C)C(=O)N[C@@H](CCCCN)C(=O)N[C@@H](CCCCN)C(=O)N[C@H](C(=O)N[C@@H](CC(C)C)C(N)=O)[C@@H](C)CC [R6] | 11.7131% | -10.6069% |
| CC[C@H](C)[C@H](N)C(=O)N[C@@H](CC(N)=O)C(=O)N[C@@H](CC(C)C)C(=O)N[C@@H](CCCCN)C(=O)N[C@@H](C)C(=O)N[C@@H](CC(C)C)C(=O)N[C@@H](C)C(=O)N[C@@H](C)C(=O)N[C@@H](CC(C)C)C(=O)N[C@@H](C)C(=O)N[C@@H](CCCCN)C(=O)N[C@@H](CCCCN)C(=O)N[C@@H](Cc1ccc(O)cc1)C(=O)N[C@@H](CC(C)C)C(N)=O [Y13] | 39.3488% | 16.5864% |
| CC[C@H](C)[C@H](N)C(=O)N[C@@H](CC(N)=O)C(=O)N[C@@H](CC(C)C)C(=O)N[C@@H](CCCCN)C(=O)N[C@H](C(=O)N[C@@H](CC(C)C)C(=O)N[C@@H](C)C(=O)N[C@@H](C)C(=O)N[C@@H](CC(C)C)C(=O)N[C@@H](C)C(=O)N[C@@H](CCCCN)C(=O)N[C@@H](CCCCN)C(=O)N[C@H](C(=O)N[C@@H](CC(C)C)C(N)=O)[C@@H](C)CC)[C@@H](C)CC [I5] | 71.3869% | 29.3206% |
| CC[C@H](C)[C@H](NC(=O)[C@H](CCCCN)NC(=O)[C@H](CCCCN)NC(=O)[C@H](C)NC(=O)[C@H](CC(C)C)NC(=O)[C@H](C)NC(=O)[C@H](C)NC(=O)[C@H](CC(C)C)NC(=O)[C@H](C)NC(=O)[C@H](CCCCN)NC(=O)[C@H](CC(C)C)NC(=O)[C@H](CC(N)=O)NC(=O)[C@@H](N)Cc1c[nH]cn1)C(=O)N[C@@H](CC(C)C)C(N)=O [H1] | 37.0221% | 0.9359% |
| CC[C@H](C)[C@H](N)C(=O)N[C@@H](CC(N)=O)C(=O)N[C@@H](CC(C)C)C(=O)N[C@@H](CCCCN)C(=O)N[C@@H](CC(N)=O)C(=O)N[C@@H](CC(C)C)C(=O)N[C@@H](C)C(=O)N[C@@H](C)C(=O)N[C@@H](CC(C)C)C(=O)N[C@@H](C)C(=O)N[C@@H](CCCCN)C(=O)N[C@@H](CCCCN)C(=O)N[C@H](C(=O)N[C@@H](CC(C)C)C(N)=O)[C@@H](C)CC [N5] | 45.6062% | 6.591% |
| CC[C@H](C)[C@H](NC(=O)[C@H](CCCCN)NC(=O)[C@H](CCCCN)NC(=O)[C@H](C)NC(=O)[C@H](CC(C)C)NC(=O)[C@H](C)NC(=O)[C@H](C)NC(=O)[C@H](CC(C)C)NC(=O)[C@H](C)NC(=O)[C@H](CCCCN)NC(=O)[C@H](CC(C)C)NC(=O)[C@H](CC(N)=O)NC(=O)[C@H](C)N)C(=O)N[C@@H](CC(C)C)C(N)=O [A1] | 30.2333% | 5.463% |
| CC[C@H](C)[C@H](N)C(=O)N[C@@H](CC(N)=O)C(=O)N[C@@H](CC(C)C)C(=O)N[C@@H](CCCCN)C(=O)N[C@@H](C)C(=O)N[C@@H](CC(C)C)C(=O)N[C@@H](C)C(=O)N[C@@H](C)C(=O)N[C@@H](CC(C)C)C(=O)N[C@@H](C)C(=O)N[C@@H](CCCCN)C(=O)N[C@@H](CCCCN)C(=O)N[C@H](C(=O)N1CCC[C@H]1C(N)=O)[C@@H](C)CC [P14] | 0.693% | -11.4473% |
| CC[C@H](C)[C@H](N)C(=O)N[C@@H](CC(N)=O)C(=O)N[C@@H](CC(C)C)C(=O)NCC(=O)N[C@@H](C)C(=O)N[C@@H](CC(C)C)C(=O)N[C@@H](C)C(=O)N[C@@H](C)C(=O)N[C@@H](CC(C)C)C(=O)N[C@@H](C)C(=O)N[C@@H](CCCCN)C(=O)N[C@@H](CCCCN)C(=O)N[C@H](C(=O)N[C@@H](CC(C)C)C(N)=O)[C@@H](C)CC [G4] | 39.0682% | 15.8704% |
| CC[C@H](C)[C@H](N)C(=O)N[C@@H](CC(N)=O)C(=O)N[C@@H](CC(C)C)C(=O)N[C@@H](CCCCN)C(=O)N[C@@H](C)C(=O)N[C@H](C(=O)N[C@@H](C)C(=O)N[C@@H](C)C(=O)N[C@@H](CC(C)C)C(=O)N[C@@H](C)C(=O)N[C@@H](CCCCN)C(=O)N[C@@H](CCCCN)C(=O)N[C@H](C(=O)N[C@@H](CC(C)C)C(N)=O)[C@@H](C)CC)[C@@H](C)O [T6] | 9.306% | 0.8912% |
| CC[C@H](C)[C@H](N)C(=O)N[C@@H](CC(N)=O)C(=O)N[C@@H](CC(C)C)C(=O)N[C@@H](CCCCN)C(=O)N[C@@H](C)C(=O)N[C@@H](Cc1ccc(O)cc1)C(=O)N[C@@H](C)C(=O)N[C@@H](C)C(=O)N[C@@H](CC(C)C)C(=O)N[C@@H](C)C(=O)N[C@@H](CCCCN)C(=O)N[C@@H](CCCCN)C(=O)N[C@H](C(=O)N[C@@H](CC(C)C)C(N)=O)[C@@H](C)CC [Y6] | 22.8055% | -4.904% |
| CC[C@H](C)[C@H](N)C(=O)N[C@@H](CC(N)=O)C(=O)N[C@@H](CC(C)C)C(=O)N[C@@H](CCCCN)C(=O)N[C@@H](C)C(=O)N[C@@H](CC(C)C)C(=O)N[C@@H](C)C(=O)N[C@@H](C)C(=O)N[C@@H](CC(C)C)C(=O)N[C@@H](C)C(=O)N[C@@H](CCCCN)C(=O)N[C@@H](CCCCN)C(=O)N[C@H](C(=O)N[C@@H](CCC(N)=O)C(N)=O)[C@@H](C)CC [Q14] | 0.3995% | 1.109% |
| CC[C@H](C)[C@H](N)C(=O)N[C@@H](CC(N)=O)C(=O)N[C@@H](CC(C)C)C(=O)N[C@@H](CCCCN)C(=O)N[C@@H](C)C(=O)N[C@@H](CC(C)C)C(=O)N[C@H](C(=O)N[C@@H](C)C(=O)N[C@@H](CC(C)C)C(=O)N[C@@H](C)C(=O)N[C@@H](CCCCN)C(=O)N[C@@H](CCCCN)C(=O)N[C@H](C(=O)N[C@@H](CC(C)C)C(N)=O)[C@@H](C)CC)[C@@H](C)O [T7] | 29.9324% | 3.741% |
